Source: patent US9446087B2, “Anti-resorptive and bone building dietary supplements and methods of use” (priority 2006, dated 2016)
Where “and” joins values, the source holds several entries; their conditions need not be identical. Identical values can stand only once. Marks after values point to notes of the source that are not given here.

Assays:
BMP-2 promoter = test: BMP2 Promoter assay (2T3-BMP2-Luciferase cells, luciferase); type: cell-based, murine
BMP-2 protein = test: BMP-2 Protein Expression Assay (Hu09 cells, ELISA); type: cell-based
Description: The cells are treated with different proteasome inhibitors for 24 hours. After incubation, the conditioned media is transferred into microcentrifuge tubes and centrifuged at 14,000 rpm for 2-3 minutes to remove cellular debris. The concentration of BMP-2 protein in the supernatant is then determined using the standard BMP-2 Elisa Kit (R&D ELISA KIT DBP200). Recombinant hBMP-2 (R&D) is used as a standard.

BMP-2 = BMP-2 Gene Expression Assay (MG-63 cells, real time PCR); type: cell-based, human
Description: It is also possible to test for BMP-2 gene expression and protein expression using assays similar to those described above for testing BMP-2 promoter activity. In particular, for gene expression, the human osteosarcoma cell line, MG-63 (ATCC# CRL-1427), is maintained in phenol-red containing MEM (as recommended by ATCC) at 37° C. and 5% CO2. Twenty-four hours prior to experimentation, 3×10^5 cells are seeded in 12-well plates in phenol-red free MEM. […] After an overnight incubation, RNA is extracted using conventional trizol/guanidine isothiocyanate based lysis. The isolated RNA was digested with RNase-free DNase I to remove any DNA contamination and then reverse transcribed to cDNA using random hexamer as well as oligo(dT) primers according to the manufacturer's instructions (Stratagene). Quantitative real time PCR is performed using FAM-labeled specific primers for BMP-2 and HEX-labeled specific primers for 18S rRNA (Invitrogen). All reactions are carried out in triplicate and the relative amount of mRNAs in treated versus untreated samples is calculated using the comparative CT method established by Applied Biosystems (2001). Gene expression changes of 2-fold or greater are considered significant.

Neonatal murine calvaria = test: Calvarial Assay to Measure Bone Growth; type: cell-based, Swiss white mice
Description: Neonatal murine calvaria from 4 day old Swiss white mice are excised, placed into BGJ media (Sigma), and cut in half along the midline suture. One milliliter of BGJ media supplemented with 0.1% bovine serum albumin (BSA) is added to each well of a 12 well tissue culture plate (Costar) to which the relevant factors or vehicles are added. Each half calvaria is placed on a stainless steel grid in the above media at the media/air interface. Usually 4 bones per experimental group are used. […] Factors to be tested are added on Day 0 (the day of dissection) and media is changed at 24 and 96 hours (if a 7 day assay is required). Calvaria are maintained in humidified air (5% Co2), at 37° C. Following the period of incubation, the calvaria are then removed and fixed overnight in 10% formalin. The calvaria are then decalcified in 14% EDTA overnight and are then embedded in paraffin wax. Sections are then cut, using a standard microtome, along the midline suture to reveal the coronal suture and the region posterior to this suture. Four micrometer sections were taken initially and at two sequential […] depths. Sections are placed on coated glass slides (Superfrost plus, Fisher Scientific, Pittsburgh, Pa.) and stained with hematoxylin and eosin. The total and new bone area (expressed as mm^2), suture thickness (mm), and number of cells lining the bone surface are determined in the section posterior to the […] suture. Histomorphometric analysis is performed using the Osteomeasure System (Osteometrics INC, Atlanta, Ga.).

[1] = system: Female, Sprague Dawley rats; test: In Vivo Study to Measure Bone Growth - histomorphological measurements; parameters: species or system rat; details: positive control, 50 μg/kg (10 μg/200 g)/3 × per week; 35 days; vs placebo group
Description: Three different formulas were tested in an in vivo study involving female, intact rats, aged approximately 12-14 weeks, with approximate body weights between 200-250 grams. Formula 1 included dosages of quercetin anhydrate and licorice at 250 mg quercetin:250 mg licorice ethanol extract and 500 mg quercetin:500 mg licorice ethanol extract. Formula 2 included dosages of quercetin anhydrate and licorice at 250 mg quercetin:125 mg licorice ethanol extract; 500 mg quercetin:250 mg licorice ethanol extract; and 1000 mg quercetin:500 mg licorice ethanol extract. Formula 3 included dosages of quercetin and licorice at 1000 mg quercetin:200 mg licorice ethanol extract. The study lasted 35 days. Eight separate groups of rats were tested with 15 rats in each group. Two of the eight groups of rats tested were control groups. One was a placebo control group and the other group received 50 μg/kg (10 μg/200 g)/3× per week parathyroid hormone. Parathyroid hormone, known as an anabolic agent, served as a positive control. See, e.g., Turner et al., “Disuse in adult male rats attenuates the bone anabolic response to a therapeutic dose of parathyroid hormone.” J. Appl Physiol. 2006. […]
(§1) The effectiveness of the formulas on bone formation was assessed by outcome measurements that included biomechanical measurement (to assess bone strength and function information), micro-CT (to analyze virtual bone quality and function information), and histomorphology measurement (to analyze bone quality and functional information). […] These measurements were determined after 35 days of treatment.
Six animals from each group were sacrificed on day 35 following treatment. […] To determine the effect of the different formulas on bone formation, trabecula bone volume, trabecular cells number and trabecular separation were assessed by histomorphology technique. […]
Bone mineral apposition rate (MARs), also reported by Table 8, was determined by measuring the mean interlabel distance divided by the time interval (5 days) between the two fluororchromes administered. […]

[2] = system: Female, Sprague Dawley rats; test: In Vivo Study to Measure Bone Growth - micro-CT measurements; parameters: species or system rat; details: positive control, 50 μg/kg (10 μg/200 g)/3 × per week; 35 days; vs placebo group
Description: Three different formulas were tested in an in vivo study involving female, intact rats, aged approximately 12-14 weeks, with approximate body weights between 200-250 grams. Formula 1 included dosages of quercetin anhydrate and licorice at 250 mg quercetin:250 mg licorice ethanol extract and 500 mg quercetin:500 mg licorice ethanol extract. Formula 2 included dosages of quercetin anhydrate and licorice at 250 mg quercetin:125 mg licorice ethanol extract; 500 mg quercetin:250 mg licorice ethanol extract; and 1000 mg quercetin:500 mg licorice ethanol extract. Formula 3 included dosages of quercetin and licorice at 1000 mg quercetin:200 mg licorice ethanol extract. The study lasted 35 days. Eight separate groups of rats were tested with 15 rats in each group. Two of the eight groups of rats tested were control groups. One was a placebo control group and the other group received 50 μg/kg (10 μg/200 g)/3× per week parathyroid hormone. Parathyroid hormone, known as an anabolic agent, served as a positive control. See, e.g., Turner et al., “Disuse in adult male rats attenuates the bone anabolic response to a therapeutic dose of parathyroid hormone.” J. Appl Physiol. 2006. Vol. 101:881-886, the entire contents of which are incorporated herein by reference.
Table 7 below indicates the formula given to each of the 8 test groups. The dosages in Table 7 are based on the recommended human daily dosages. FDA dose conversion formula (Human equivalent dose (HED, mg/kg)=rat dose in mg/kg×(rat weight in kg/human weight in kg)^0.33) was used to convert the human dose to the rat dose. HED=rat NOAEL×(W-rat/W-human)^(1-b), b=0.67.
Female, Sprague Dawley rats were used (200-250 gm each, ˜12-14 weeks old). Animals were fed at 15 gm/day, which included either a placebo diet or one of the formulas listed above, for a period of 35 days from the beginning of the experiment. Chow was made available each morning to the rats at the rate of 15 grams/rat/day. The rats were allowed free access to water and housed in appropriate cages for the entire experiment. Unrestricted activity was allowed during the entire experiment, which lasted 35 days.
as §1, with “treatment. […]” for “treatment.”
Obtaining information from a wide range of parameters such as bone mineral density (BMD), bone volume (% bone volume/total volume), trabecular number, and trabecular separation is critical for bone structure assessment quantitatively and qualitatively. […]

[3] = system: Female, Sprague Dawley rats; test: In Vivo Study to Measure Bone Growth - biomechanical measurements; parameters: species or system rat; details: positive control, 50 μg/kg (10 μg/200 g)/3 × per week; 35 days; vs placebo group
Description: Three different formulas were tested in an in vivo study involving female, intact rats, aged approximately 12-14 weeks, with approximate body weights between 200-250 grams. Formula 1 included dosages of quercetin anhydrate and licorice at 250 mg quercetin:250 mg licorice ethanol extract and 500 mg quercetin:500 mg licorice ethanol extract. Formula 2 included dosages of quercetin anhydrate and licorice at 250 mg quercetin:125 mg licorice ethanol extract; 500 mg quercetin:250 mg licorice ethanol extract; and 1000 mg quercetin:500 mg licorice ethanol extract. Formula 3 included dosages of quercetin and licorice at 1000 mg quercetin:200 mg licorice ethanol extract. The study lasted 35 days. […]
as §1
Besides bone mass and bone volume evaluation, bone strength was examined mechanically using two different parameters. One parameter measured the maximum force needed to fracture the bone and the other determined the stiffness (the elasticity) of bone. […]

O=c1c(O)c(-c2ccc(O)c(O)c2)oc2cc(O)cc(O)c12 [Q, Quercetin]
BMP2 Promoter assay (ratio to control) (BMP-2 promoter; 0.05 μg/ml): 1.00 FOLD
BMP2 Promoter assay (ratio to control) (BMP-2 promoter; 0.1 μg/ml): 1.10 FOLD
BMP2 Promoter assay (ratio to control) (BMP-2 promoter; 0.2 μg/ml): 1.10 FOLD
BMP2 Promoter assay (ratio to control) (BMP-2 promoter; 0.4 μg/ml): 1.00 FOLD
BMP2 Promoter assay (ratio to control) (BMP-2 promoter; 0.8 μg/ml): 1.15 FOLD
BMP2 Promoter assay (ratio to control) (BMP-2 promoter; 1.6 μg/ml): 1.30 FOLD
BMP2 Promoter assay (ratio to control) (BMP-2 promoter; 3.2 μg/ml): 1.80 FOLD
BMP2 Promoter assay (ratio to control) (BMP-2 promoter; 6.3 μg/ml): 2.30 FOLD
BMP2 Promoter assay (ratio to control) (BMP-2 promoter; 12.5 μg/ml): 2.90 FOLD
BMP2 Promoter assay (ratio to control) (BMP-2 promoter; 25 μg/ml): 3.60 FOLD
BMP2 Promoter assay (ratio to control) (BMP-2 promoter; 50 μg/ml): 4.80 FOLD
BMP2 Promoter assay (ratio to control) (BMP-2 promoter; 100 μg/ml): 5.20 FOLD
BMP-2 Protein Expression (BMP-2 protein; 1 μg/ml): 2.0 FOLD
BMP-2 Protein Expression (BMP-2 protein; 10 μg/ml): 4.6 FOLD
BMP-2 Protein Expression (BMP-2 protein; 100 μg/ml): 2.2 FOLD
BMP-2 Expression (fold change) (BMP-2; 0.1 μg/ml): No change (−1.06) fold change
BMP-2 Expression (fold change) (BMP-2; 1 μg/ml): 2 fold change and 2.03 fold change
BMP-2 Expression (fold change) (BMP-2; 5 μg/ml): 2.51 ± 0.14 fold change
Fold Change in Gene Expression (BMP-2; 10 μg/ml): 2.6 × increase
BMP-2 Expression (fold change) (BMP-2; 20 μg/ml): 4.61 ± 0.07 fold change
BMP-2 Expression (fold change) (BMP-2; 100 μg/ml): 14 fold change
Calvarial Assay Results - Bone Formation Stimulated by Extract Combinations (Neonatal murine calvaria; 0.2 ug/ml): 6.90 ± 0.56 mm^2 × 10^−3
Calvarial Assay Results - Bone Formation Stimulated by Extract Combinations (Neonatal murine calvaria; 0.7 ug/ml): 10.30 ± 0.78^a mm^2 × 10^−3
Calvarial Assay Results - Bone Formation Stimulated by Extract Combinations (Neonatal murine calvaria; 1 ug/ml): 13.70 ± 3.20^a mm^2 × 10^−3
Calvarial Assay Results- Bone formation (Neonatal murine calvaria; 1 μg/ml): 7.57 ± 1.52 mm^2 × 10^−3
Calvarial Assay Results - Bone Formation Stimulated by Extract Combinations (Neonatal murine calvaria; 8.3 ug/ml): 0.10 ± 0.10 mm^2 × 10^−3
Calvarial Assay Results- Bone formation (Neonatal murine calvaria; 10 μg/ml): 13.41 ± 2.50^a mm^2 × 10^−3
Calvarial Assay Results - Bone Formation Stimulated by Extract Combinations (Neonatal murine calvaria; 14.3 ug/ml): 0.10 ± 0.12 mm^2 × 10^−3
Calvarial Assay Results- Bone formation (Neonatal murine calvaria; 100 μg/ml): 13.55 ± 1.47^a mm^2 × 10^−3

CCC(C)(C)C(=O)O[C@H]1C[C@@H](C)C=C2C=C[C@H](C)[C@H](CC[C@@H]3C[C@@H](O)CC(=O)O3)[C@H]21 [Simvastatin]
Calvarial Assay Results- Bone formation (Neonatal murine calvaria; 0.25 μM, positive control): 7.45 ± 1.34 mm^2 × 10^−3
Calvarial Assay Results- Bone formation (Neonatal murine calvaria; 0.5 μM, positive control): 9.50 ± 1.00 mm^2 × 10^−3
Calvarial Assay Results- Bone formation (Neonatal murine calvaria; 1 μM, positive control): 12.5 ± 1.00 mm^2 × 10^−3

B1: PTH: parathyroid hormone, anabolic agent, positive control (protein, UniProt P01270 32-115, looked up)
Parathyroid hormone: SVSEIQLMHNLGKHLNSMERVEWLRKKLQDVHNFVALGAPLAPRDAGSQRPRKKEDNVLVESHEKSLGEADKADVNVLTKAKSQ
modifications: Parathyroid hormone
notes: parathyroid hormone, anabolic agent, positive control
Trabecular Separation [1]: −38.30%
Trabecular thickness [1]: 7.35%
reduction in trabecular separation [1]: 38.30%
% Bone Volume/ Total Volume [2]: 32%^a
Bone Mineral Density (BMD) [2]: 86%^a
Trabecular Number (N/6 mm^2) [2]: 25%^a
Trabecular separation (mm) [2]: −28%^a
Bone Stiffness [3]: 0.0%
Maximum Force Required to Fracture Bones [3]: 0.0%
